Experimental data reported in patent US20250034084A1, “COMPOSITIONS AND METHODS FOR PREVENTING OR TREATING MYCOSIS” (AMTIXBIO CO., LTD., priority 2016, published 2025).
In brackets after ≈: the same amount, converted by molar mass.

Key:
Test in all cases: Antifungal activity assay (MIC), NCCLS method
Format in all cases: cell-based
Conditions in all cases: RPMI 1640 medium
[1] = system: Cryptococcus neoformans var. grubii H99 (ATCC)
Text: (§1) In order to measure the minimum inhibitory concentration (MIC), strains Candida albicans SC5314 (ATCC), Candida glabrata BG2 (ATCC), and Cryptococcus neoformans var. grubii […] were used. All the strains used in the test examples of the present invention were purchased from Korean Culture Center of Microorganisms (KCCM) and ATCC, and used. […] As a control group, amphotericin B and fluconazole, which are known to have excellent antifungal inhibitory activity with a problem of human toxicity, were used. Specifically, in order to prepare a medium first, 8.4 g of RPMI-1640 powder (Sigma; […]-1L) was added to 900 ml of distilled water. Next, 34.5 g of MOPS was added thereto, to bring the final concentration to 0.165 M. Then, 100 ml of 20% glucose was added thereto, and then the pH of the resultant was adjusted to 7 using NaOH. Next, after performing filtration with a filter, the filtrate was stored in a refrigeration condition at 4° C. for use in the next experiment. The experimental method and procedure for the MIC assay were as follows: […] (c) in a case of Aspergillus fumigatus, a diluent was prepared at a concentration of 1×10^5 conidia/ml; (d) a 96-well plate was used and 100 μl of the solution was added to each well, so that 2 μl of diluted drug was prepared; (e) 200 μl of the solution was added to a well into which the highest concentration of drug was to be added, and dilution was performed by serial dilution; (f) after performing static culture for 48 hours at 37° C., a degree of growth was measured at OD600 and a comparison was made.

[2] = system: Candida glabrata BG2 (ATCC)
Text: as §1

[3] = system: Candida albicans SC5314 (ATCC)
Text: as §1

SMILES	MIC C. neoformans [1]	MIC C. glabrata [2]	MIC C. albicans [3]	MIC C. neoformans ([1]; hydrochloride)	MIC C. glabrata ([2]; hydrochloride)
CN1CCCC1C(=O)NCc1ccc(OCc2ccc(C(F)(F)F)cc2)cc1 (racemic) [Compound 43, (R)/(S)-1-methyl-N-(4-((4-(trifluoromethyl)benzyl)oxy)benzyl)pyrrolidine-2-carboxamide]	8 µg/mL (≈ 20.4 µM)	64 µg/mL (≈ 163 µM)	32 µg/mL (≈ 81.5 µM)		
CCC(C(=O)NCc1ccc(OCc2ccc(C(F)(F)F)cc2)cc1)N(C)C (racemic) [Compound 59, (R)/(S)-2-(dimethylamino)-N-(4-((4-trifluoromethyl)benzyl)oxy)benzyl)butanamide]	8 µg/mL (≈ 20.3 µM)				
CCC(N)C(=O)NCc1ccc(OCc2ccc(Cl)c(Cl)c2)cc1.Cl (racemic) [Compound 57, (R)/(S)-1-((4-(3,4-dichlorobenzyl)oxy)benzyl)amino)-1-oxobutane-2-aminium chloride]	8 µg/mL				
Cl.O=C(NCc1ccc(OCc2cccc(F)c2)cc1)C1CCCN1 (racemic) [Compound 38, (R)/(S)-N-(4-((3-fluorobenzyl)oxy)benzyl)pyrrolidine-2-carboxamide hydrochloride]				128 µg/mL	
C[C@@H]1[C@H](O)[C@@H](C)/C=C/C=C/C=C/C=C/C=C/C=C/C=C/[C@H](O[C@@H]2O[C@H](C)[C@@H](O)[C@H](N)[C@@H]2O)C[C@@H]2O[C@](O)(C[C@@H](O)C[C@@H](O)[C@H](O)CC[C@@H](O)C[C@@H](O)CC(=O)O[C@H]1C)C[C@H](O)[C@H]2C(=O)O [AmpB, amphotericin B, reference compound]	0.125 µg/mL (≈ 0.135 µM)	0.5 µg/mL (≈ 0.541 µM)	0.25 µg/mL (≈ 0.271 µM)		
CCCC(NCC)C(=O)NCc1ccc(OCc2ccc(C(F)(F)F)cc2)cc1 (racemic) [Compound 64, (R)/(S)-2-(ethylamino)-N-(4-((4-(trifluoromethyl)benzyl)oxy)benzyl)pentanamide]	4 µg/mL (≈ 9.79 µM)				
CN1CCCC1C(=O)NCc1ccc(OCc2ccc(Cl)cc2)cc1 (racemic) [Compound 44, (R)/(s)-1-methyl-N-(4-((4-chlorobenzyl)oxy)benzyl)pyrrolidine-2-carboxamide]	8 µg/mL (≈ 22.3 µM)	64 µg/mL (≈ 178 µM)	32 µg/mL (≈ 89.2 µM)		
CN1CCC(C(=O)NCc2ccc(OCc3ccc(Cl)cc3)cc2)C1 (racemic) [Compound 54, (R)/(s)-1-methyl-N-(4-((4-chlorobenzyl)oxy)benzyl)pyrrolidine-3-carboxamide]	8 µg/mL (≈ 22.3 µM)	64 µg/mL (≈ 178 µM)	64 µg/mL (≈ 178 µM)		
CCNC(CC)C(=O)NCc1ccc(OCc2ccc(Cl)c(Cl)c2)cc1 (racemic) [Compound 63, (R)/(S)-N-(4-((3,4-dichlorobenzyl)oxy)benzyl-2-(ethylamino)butanamide]	4 µg/mL (≈ 10.1 µM)				
CCCC(NC)C(=O)NCc1ccc(OCc2ccc(C(F)(F)F)cc2)cc1 (racemic) [Compound 30, (R)/(S)-2-(methylamino)-N-(4-(4-trifluoromethyl)benzyl)oxy)benzyl)pentanamide]	2 µg/mL (≈ 5.07 µM)	8 µg/mL (≈ 20.3 µM)	8 µg/mL (≈ 20.3 µM)		
CN1CCC(C(=O)NCc2ccc(OCc3ccc(C(F)(F)F)cc3)cc2)C1 (racemic) [Compound 53, (R)/(S)-1-methyl-N-(4-((4-(trifluoromethyl)benzyl)oxy)benzyl)pyrrolidine-3-carboxamide]	8 µg/mL (≈ 20.4 µM)	64 µg/mL (≈ 163 µM)	64 µg/mL (≈ 163 µM)		
CCC(N)C(=O)NCc1ccc(OCc2ccc(F)cc2)cc1.Cl (racemic) [Compound 19, (R)/(S)-1-((4-((4-(fluorobenzyl)oxy)benzyl)amino)-1-oxobutane-2-aminium chloride]	64 µg/mL	>128 µg/mL	>128 µg/mL		
CCC(N)C(=O)NCc1ccc(OCc2ccccc2F)cc1.Cl (racemic) [Compound 17, (R)/(S)-1-((4-((2-(fluorobenzyl)oxy)benzyl)amino)-1-oxobutane-2-aminum chloride]	64 µg/mL	>128 µg/mL	>128 µg/mL		
Cl.O=C(NCc1ccc(OCc2ccc(C(F)(F)F)cc2)cc1)C1CCCN1 (racemic) [Compound 50, (R)/(S)-2-((4-((4-(trifluoromethyl)benzyl)oxy)benzyl)carbamoyl)pyrrolidi-1-nium chloride]	8 µg/mL	128 µg/mL	64 µg/mL		
CN1CCC(C(=O)NCc2ccc(OCc3cccc(F)c3)cc2)C1 (racemic) [Compound 52, (R)/(s)-1-methyl-N-(4-((3-fluorobenzyl)oxy)benzyl)pyrrolidine-3-carboxamide]	8 µg/mL (≈ 23.4 µM)	128 µg/mL (≈ 374 µM)	128 µg/mL (≈ 374 µM)		
CCC(NC)C(=O)NCc1ccc(OCc2ccc(Cl)cc2)cc1 (racemic) [Compound 29, (R)/(S)-N-(4-((4-chlorobenzyl)oxy)benzyl)-2-(methylamino)butanamide]	8 µg/mL (≈ 23.1 µM)	32 µg/mL (≈ 92.3 µM)	32 µg/mL (≈ 92.3 µM)		
CCCC(N)C(=O)NCc1ccc(OCc2ccc(Cl)c(Cl)c2)cc1.Cl (racemic) [Compound 58, (R)/(S)-1-((4-((3,4-dichlorobenzyl)oxy)benzyl)amino)-1-oxopentane-2-aminium chloride]	4 µg/mL				
CCC(N)C(=O)NCc1ccc(OCc2ccccc2C(F)(F)F)cc1.Cl (racemic) [Compound 20, (R)/(S)-1-oxo-1-((4-((2-(trifluoromethyl)benzyl)oxy)benzyl)amino)butane-2-aminium chloride]	16 µg/mL	64 µg/mL	64 µg/mL		
Cl.O=C(NCc1ccc(OCc2ccc(Cl)cc2)cc1)C1CCCN1 (racemic) [Compound 41, (R)/(S)-N-(4-((4-chlorobenzyl)oxy)benzyl)pyrrolidine-2-carboxamide hydrochloride]			64 µg/mL	32 µg/mL	64 µg/mL
Cl.O=C(NCc1ccc(OCc2ccc(Cl)cc2)cc1)C1CCCN1 (racemic) [Compound 51, (R)/(S)-2-((4-(4-chlorobenzyl)oxy)benzyl) carbamoyl)pyrrolidi-1-nium chloride]	8 µg/mL	128 µg/mL	64 µg/mL		
CCC(C(=O)NCc1ccc(OCc2ccc(C(F)(F)F)cc2)cc1)N(CC)CC (racemic) [Compound 66, (R)/(S)-2-(diethylamino)-N-(4-((4-(trifluoromethyl)benzyl)oxy)benzyl)butanamide]	4 µg/mL (≈ 9.47 µM)				
CCC(C(=O)NCc1ccc(OCc2ccc(Cl)c(Cl)c2)cc1)N(CC)CC (racemic) [Compound 67, (R)/(S)-N-(4-((3,4-dichlorobenzyl)oxy)benzyl-2-(diethylamino)butanamide]	2 µg/mL (≈ 4.72 µM)				
CCC(N)C(=O)NCc1ccc(OCc2cccc(Cl)c2)cc1.Cl (racemic) [Compound 23, (R)/(S)-1-((4-((3-(chlorobenzyl)oxy)benzyl)amino)-1-oxobutane-2-aminium chloride]	16 µg/mL	64 µg/mL	64 µg/mL		
CCCC(C(=O)NCc1ccc(OCc2ccc(C(F)(F)F)cc2)cc1)N(CC)CC (racemic) [Compound 68, (R)/(S)-2-(diethylamino)-N-(4-((4-(trifluoromethyl)benzyl)oxy)benzyl)pentanamide]	2 µg/mL (≈ 4.58 µM)				
CCCC(NCC)C(=O)NCc1ccc(OCc2ccc(Cl)c(Cl)c2)cc1 (racemic) [Compound 65, (R)/(S)-N-(4-((3,4-dichlorobenzyl)oxy)benzyl-2-(ethylamino)pentanamide]	2 µg/mL (≈ 4.89 µM)				
CCC(N)C(=O)NCc1ccc(OCc2ccc(Cl)cc2)cc1.Cl (racemic) [Compound 24, (R)/(S)-1-((4-((4-(chlorobenzyl)oxy)benzyl)amino)-1-oxobutane-2-aminium chloride]	16 µg/mL	32 µg/mL	64 µg/mL		
CCC(C(=O)NCc1ccc(OCc2ccc(Cl)c(Cl)c2)cc1)N(C)C (racemic) [Compound 61, (R)/(S)-N-(4-((3,4-dichlorobenzyl)oxy)benzyl)-2-(dimethylamino)butanamide]	2 µg/mL (≈ 5.06 µM)				
CCC(C(=O)NCc1ccc(OCc2ccc(Cl)c(Cl)c2)cc1)N(C)C (racemic) [Compound 60, (R)/(S)-N-(4-((3,4-dichlorobenzyl)oxy)benzyl)-2-(dimethylamino)butanamide]	8 µg/mL (≈ 20.2 µM)				
CCCC(C(=O)NCc1ccc(OCc2ccc(Cl)c(Cl)c2)cc1)N(CC)CC (racemic) [Compound 69, (R)/(S)-N-(4-((3,4-dichlorobenzyl)oxy)benzyl-2-(diethylamino)pentanamide]	1 µg/mL (≈ 2.29 µM)				
CCNC(CC)C(=O)NCc1ccc(OCc2ccc(C(F)(F)F)cc2)cc1 (racemic) [Compound 62, (R)/(S)-2-(ethylamino)-N-(4-((4-trifluoromethyl)benzyl)oxy)benzyl)butanamide]	8 µg/mL (≈ 20.3 µM)				
